# Assay results taken from US20040161794A1 (The General Hospital Corporation, priority 2002, published 2004).
# Columns and labels:
# rat hypothalamic tissue = conditions: injected intravenously or included in the in vitro incubation of rat hypothalamic tissue; cited from earlier work
# [1] = test system: vascular rings from rat pulmonary artery and aorta; conditions: in vitro; cited from earlier work
# cultured rat myocytes = conditions: cited from earlier work
# Na^+ pump = biological target: T1, Na^+ pump (Homo sapiens, UniProt P05023); assay: Inhibition of Na+ pump activity (active Rb+ uptake) in human erythrocytes; type: cell-based; conditions: 1 mM, standard
# T1 construct: measuring active ^86Rb^+(K^+ analogue) transport into human erythrocytes; endogenous in cells; host or cells: human erythrocytes
# Procedure: After purifying the conditioned medium by reverse-phase column chromatography (Sep-Pak, Waters), the resulting sample was assayed using the ^86Rb uptake assay to determine a change in inhibition as previously described in Carilli et al., J. Biol. Chem., 260:1027-1031 (1985).
# PC12 cells are studied for the presence of the genes of interest, then the release of inhibitor from these cells is confirmed using the method of Komiyama (Komiyama et al., J. Hypertens., 19:229-236 (2001)). Collected supernatants are acidified to dissociate OLC from putative carrier proteins, and purified using Sep-Pak C18 cartridges eluted with acetonitrile.
# PC12 cells = conditions: added to the culture media of PC12 cells; cited from earlier work
structure (smiles),measurement,setting,value
CC[C@H](C)[C@@H]1NC(=O)[C@H](CCCNC(=N)N)NC(=O)[C@H](CC(=O)O)NC(=O)[C@H](CCSC)NC(=O)[C@H](CCCNC(=N)N)NC(=O)CNC(=O)CNC(=O)[C@H](Cc2ccccc2)NC(=O)[C@@H](NC(=O)[C@H](CO)NC(=O)[C@H](CO)NC(=O)[C@H](CCCNC(=N)N)NC(=O)[C@H](CCCNC(=N)N)NC(=O)[C@H](CC(C)C)NC(=O)[C@@H](N)CO)CSSC[C@@H](C(=O)N[C@@H](CC(N)=O)C(=O)N[C@@H](CO)C(=O)N[C@@H](Cc2ccccc2)C(=O)N[C@@H](CCCNC(=N)N)C(=O)N[C@@H](Cc2ccc(O)cc2)C(=O)O)NC(=O)CNC(=O)[C@H](CC(C)C)NC(=O)CNC(=O)[C@H](CO)NC(=O)[C@H](CCC(N)=O)NC(=O)[C@H](C)NC(=O)CNC1=O [atrial natriuretic peptide],"release of the Na+,K+-ATPase inhibitor",rat hypothalamic tissue,decreased the release
C[C@@H]1O[C@@H](O[C@H]2C[C@@H](O)[C@]3(CO)[C@H]4[C@H](O)C[C@]5(C)[C@@H](C6=CC(=O)OC6)CC[C@]5(O)[C@@H]4CC[C@]3(O)C2)[C@H](O)[C@H](O)[C@H]1O [ouabain],effect on isolated vascular rings,[1],unaffected by Oua except at toxic concentrations
same,toxicity at the same intracellular Ca++ concentration,cultured rat myocytes,toxic
same,inhibition of active Na+ transport,Na^+ pump,Complete inhibition
CC(=O)[C@H]1CC[C@H]2[C@@H]3CCC4=CC(=O)CC[C@]4(C)[C@H]3CC[C@]12C [progesterone],amount of OLC release into culture supernatants,PC12 cells,augmented in a dose-dependent manner
